Experimental data published in patent US20240173439A1, “FLUORINE-CONTAINING COMPOUND AND CONTRAST MEDIUM” (TDK CORPORATION, priority 2021, published 2024).

Test: Measurement of 19F spin-lattice relaxation time (T1) by inversion recovery, 500 MHz NMR
Format: physicochemical
Conditions: 50 mM in CDCl3, 36° C.
Method: (Measurement of ^19F Spin-Lattice Relaxation Time (T1))
A compound was dissolved in a deuterated chloroform solution at a concentration of 50 mM, and the longitudinal relaxation time (T1) of ^19F nucleus was measured through an inversion recovery method using a 500 MHz NMR device under the conditions shown below.
Measurement Conditions • NMR device: JNM-ECA500 (manufactured by JEOL) • Measurement temperature: 36° C. • Pulse sequence: double_pulse • relaxation_delay: 10[s] • tau_interval: 4, 3, 2, 1, 0.8, 0.6, 0.4, 0.2, 0.1[s], 80, 60, 40, 20, 10, 8, 6, 4, 2[ms] • Number of times of integration: 16 times

SMILES	T1 (19F spin-lattice relaxation time)
CC1(C)CC(OCCCCCCCCCCCCOC(C(F)(F)F)(C(F)(F)F)C(F)(F)F)CC(C)(C)N1[O] [Compound 28]	0.214 s
CC1(C)CC(OC(C(F)(F)F)(C(F)(F)F)C(F)(F)F)CC(C)(C)N1[O] [Compound 24, 4-((1,1,1,3,3,3-hexafluoro-2-(trifluoromethyl)propane-2-yl)oxy)-2,2,6,6-tetramethylpiperidine-1-oxyl]	0.092 s
CC1(C)CC(OCC(F)(F)F)CC(C)(C)N1[O] [Compound 17]	0.101 s
CC1(C)CC(OCCCCOC(C(F)(F)F)C(F)(F)F)CC(C)(C)N1[O] [Compound 26, 4-(4-((1,1,1,3,3,3-hexafluoropropane-2-yl)oxy)butoxy)-2,2,6,6-tetramethylpiperidine-1-o xyl]	0.130 s
CC1(C)CC(OCCCC(F)(F)F)CC(C)(C)N1[O] [Compound 14]	0.117 s
CC1(C)CC(OCCC(F)(F)F)CC(C)(C)N1[O] [Compound 13]	0.105 s
CC1(C)CC(Oc2cccc(C(F)(F)F)c2)CC(C)(C)N1[O] [Compound 19]	0.110 s
CC1(C)CC(OC(C(F)(F)F)C(F)(F)F)CC(C)(C)N1[O] [Compound 16]	0.096 s
CC1(C)CC(Oc2ccc(C(F)(F)F)cc2)CC(C)(C)N1[O] [Compound 21]	0.123 s
CC1(C)CC(OC(C(F)(F)F)(C(F)(F)F)C(F)(F)F)CC(C)(C)N1[O] [Compound 15, 4-((1,1,1,3,3,3-hexafluoro-2-(trifluoromethyl)propane-2-yl)oxy)-2,2,6,6-tetramethylpiper idine-1-oxyl]	0.094 s
CCC1(CC)CC(OCCCCOC(C(F)(F)F)(C(F)(F)F)C(F)(F)F)CC(C)(C)N1[O] (stereo not shown) [Compound 25, 4-(4-((1,1,1,3,3,3-hexafluoro-2-(trifluoromethyl)propane-2-yl)oxy)butoxy)-2,2-diethyl-6,6-dimethylpiperidine-1-oxyl]	0.127 s
CCC1(CC)CC(OCCCCOC(C(F)(F)F)(C(F)(F)F)C(F)(F)F)CC(CC)(CC)N1[O] [Compound 22, 4-(4-((1,1,1,3,3,3-hexafluoro-2-(trifluoromethyl)propane-2-yl)oxy)butoxy)-2,2,6,6-tetraet hylpiperidine-1-oxyl]	0.130 s
CC1(C)CC(OCCCCCCCCCCCCCCCCOC(C(F)(F)F)(C(F)(F)F)C(F)(F)F)CC(C)(C)N1[O] [Compound 29]	0.284 s
CC1(C)CC(OCCCCCCCCOC(C(F)(F)F)(C(F)(F)F)C(F)(F)F)CC(C)(C)N1[O] [Compound 27, 4-((8-((1,1,1,3,3,3-hexafluoro-2-(trifluoromethyl)propane-2-yl)oxy)octyl)oxy)-2,2,6,6-tet ramethylpiperidine-1-oxyl]	0.130 s
CCC1(CC)CC(OCCOC(C(F)(F)F)(C(F)(F)F)C(F)(F)F)CC(CC)(CC)N1[O] [Compound 23]	0.118 s
CC1(C)CC(OCCOC(C(F)(F)F)(C(F)(F)F)C(F)(F)F)CC(C)(C)N1[O] [Compound 12]	0.121 s
CC1(C)CC(OCCCCOC(C(F)(F)F)(C(F)(F)F)C(F)(F)F)CC(C)(C)N1[O] [Compound 11, 4-(4-((1,1,1,3,3,3-hexafluoro-2-(trifluoromethyl)propane-2-yl)oxy)butoxy)-2,2,6,6-tetra methylpiperidine-1-oxyl]	0.134 s
CC1(C)CC(Oc2ccccc2C(F)(F)F)CC(C)(C)N1[O] [Compound 18]	0.098 s
CC1(C)CC(Oc2cc(C(F)(F)F)cc(C(F)(F)F)c2)CC(C)(C)N1[O] [Compound 20]	0.108 s
